Results: PMC12048343, “Discovery of a small molecule secreted clusterin enhancer that improves memory in Alzheimer’s disease mice” (npj Drug Discovery, 2025)
Read-outs that look alike come from different tables or passages of the source.

How the values were obtained:
[1] = target: BRD2 (Homo sapiens, UniProt P25440); assay: BRD2 inhibition assay; assay type: biochemical
[2] = test system: sCLU secreted from human U-87 MG glioblastoma cells; assay: Human sCLU AlphaLISA on supernatant of U-87 MG cells (HTS, re-test, dose response); assay type: cell-based; settings: Homo sapiens; U-87 MG cells, 30 h, AlphaLISA of supernatant; read-out: EC50 for sCLU increase
Method: Cell culture supernatant (2 μL) was added to a 384-well proxy plate preloaded with AlphaLISA HiBlock buffer (2 µL, 1X, CAT#AL004C, Perkin Elmer). Then an anti-sCLU antibody mixture (2 µL, mAb J84, biotinylated (10 nM, Cat# 3717-6-1000, Mabtech) and mAb CLU aa 22-227 (Cat#AF7084, R&D Systems), Acceptor bead conjugated (50 µg/mL, Cat#6772001, Perkin Elmer)) was added and incubated at room temperature for 1 hour. AlphaScreen Streptavidin Donor beads (2 µL, Cat#6760002S, Perkin Elmer) were added, incubated for an additional 30 min in the dark, and the plate was read in an Envision plate reader.
Human glioblastoma U-87 MG cells were proliferated in EMEM with 10% FBS and 1% P/S (complete medium) in 10 cm dishes until approximately 90% confluent. Following trypsinization, a suspension of 2 × 10^5 cells/mL (25 µL) were added to 384-well plates containing complete medium (25 µL) and library compounds from 9 plates (5 µM). After incubation for 30 h at 37 °C and 5% CO2, 2 μL of cell culture supernatant were analyzed via human sCLU AlphaLISA as described above. Cell culture medium and cells were added to the 384-well plates using the MultiDrop. The BioMek FX was used to pin the drugs and transfer the cell culture supernatant. The MANTIS liquid handler was used to added human sCLU AlphaLISA reagents.
Human glioblastoma U-87 MG cells were proliferated in EMEM with 10% FBS and 1% P/S (complete medium) in 10 cm dishes until approximately 90% confluent. […] After incubation for 30 hours at 37 °C and 5% CO2, 2 μL of cell culture supernatant were analyzed via human sCLU AlphaLISA as described above.

[3] = Blood-Brain Barrier (BBB) permeability assay (IAM column, Pm); assay type: in vitro ADME; settings: pH 7.4; Pm > 1.0 = CNS+
Method: A liquid chromatography-ultraviolet/visible spectroscopy (LC-UV/Vis) assay was performed on a 1290 Infinity HPLC system (Agilent Technologies) with an HPLC column containing immobilized phosphatidylcholine (IAM.PC.DD, Regis Technologies, Cat#774011, 5 µm 300 Å 100 ×4.6 mm). The HPLC method was a mixture of 6.7 mM phosphate buffer saline (pH 7.4; solvent A) and acetonitrile (solvent B), and a gradient was used for the elution of the compounds (min/%B: 0/20, 20/60, 21/20, 30/20). The retention time of the compound (tr) and void volume time of the column (t0) were recorded. Blood-brain barrier (BBB) permeability (Pm) was calculated using the following equations as described by Yoon et al. (10.1177/1087057105281656):
KIAM = (tr − t0) / t0; Pm = (KIAM / MW^4) x 10^10
Compounds with a Pm > 1.0 were determined to be BBB permeable (CNS + ) at pH 7.

[4] = Liver microsome stability assay; assay type: in vitro ADME; settings: pH 7.4; human liver microsomes 0.5 mg/mL, NADPH, 37 °C, up to 120 min; read-out: Microsomal Stability t1/2
Method: An aliquot (1 µL) of test compound (1 mM, 100% DMSO) was added to an aqueous liver microsome solution (1000 µL, PBS pH 7.4, 0.5 mg/mL human liver microsomes (Thermo Fisher Scientific, Cat#HMMPL), 2 mM NADPH, 2 mM MgCl2) and incubated at 37 °C for 120 min. Aliquots (50 µL) of the microsome solution were taken at various time points (0, 5, 10, 15, 30, 60, 90, 120 min) and added to a reaction quenching solution (200 µL 100% Acetonitrile) containing an internal standard. Solutions were clarified by centrifugation (16,000 x g, 5 min), and the supernatants were transferred to new tubes and lyophilized. Samples were reconstituted in 100 µL of 50/50/0.1 (Water/Acetonitrile/Formic Acid) prior to analysis via liquid chromatography-tandem mass spectrometry (LC-MS/MS). Chromatographic peak areas normalized to the internal standard were plotted at each time point and the half-life (t1/2) of compound in liver microsomes was determined by using the trendline equation to calculate the time at which compound abundance was 50% of that at time point 0 (t0).

[5] = Brain tissue binding assay (dialysis); assay type: in vitro ADME
Method: (§1) Brain tissue was homogenized in PBS (pH 7.4) (1: 3 weight(mg)/volume(µL)) and the protein concentration was determined using the Micro BCA™ Protein Assay Kit (Thermo Fisher Scientific, Cat#23235). Brain homogenate was clarified and diluted to 20 mg/mL in PBS (pH 7.4). Either brain homogenate or plasma was and added to Slide-A-Lyzer™ MINI Dialysis Devices, 10 K MWCO dialysis cups (Thermo Fisher Scientific, Cat#PI88401) in a 48-well plate containing PBS (500 µL; pH 7.4). 1 µL of 1 mM compound was added to the brain homogenate (Final Concentration: 2 µM compound, 0.5% DMSO) and incubated on a rocker for 4.5 hours at 37 °C. 50 µL of brain homogenate or plasma (within the dialysis cup) and PBS (within the 48-well plate) were transferred to new microcentrifuge tubes containing 400 µL of quenching reagent (100% Acetonitrile) containing internal standard. Solutions were clarified by centrifugation (16,000 x g, 5 min), and the supernatants were transferred to new tubes and lyophilized. Samples were reconstituted in 100 µL of 50/50/0.1 (Water/Acetonitrile/Formic Acid) prior to analysis via liquid chromatography-tandem mass spectrometry (LC-MS/MS). The % of the unbound drug (fu,bound) was calculated using the following equation:
(§2) % Bound = [1− (PBS chromatographic peak area/ brain homogenate or plasma chromatographic peak area)] x 100

[6] = Plasma binding assay (dialysis); assay type: in vitro ADME; settings: dialysis 4.5 hours, 37 °C
Method: as §1, §2

[7] = brain homogenate 20 mg/mL, 2 µM compound, dialysis 4.5 hours, 37 °C

BRD2, sequence (P25440 whole entry): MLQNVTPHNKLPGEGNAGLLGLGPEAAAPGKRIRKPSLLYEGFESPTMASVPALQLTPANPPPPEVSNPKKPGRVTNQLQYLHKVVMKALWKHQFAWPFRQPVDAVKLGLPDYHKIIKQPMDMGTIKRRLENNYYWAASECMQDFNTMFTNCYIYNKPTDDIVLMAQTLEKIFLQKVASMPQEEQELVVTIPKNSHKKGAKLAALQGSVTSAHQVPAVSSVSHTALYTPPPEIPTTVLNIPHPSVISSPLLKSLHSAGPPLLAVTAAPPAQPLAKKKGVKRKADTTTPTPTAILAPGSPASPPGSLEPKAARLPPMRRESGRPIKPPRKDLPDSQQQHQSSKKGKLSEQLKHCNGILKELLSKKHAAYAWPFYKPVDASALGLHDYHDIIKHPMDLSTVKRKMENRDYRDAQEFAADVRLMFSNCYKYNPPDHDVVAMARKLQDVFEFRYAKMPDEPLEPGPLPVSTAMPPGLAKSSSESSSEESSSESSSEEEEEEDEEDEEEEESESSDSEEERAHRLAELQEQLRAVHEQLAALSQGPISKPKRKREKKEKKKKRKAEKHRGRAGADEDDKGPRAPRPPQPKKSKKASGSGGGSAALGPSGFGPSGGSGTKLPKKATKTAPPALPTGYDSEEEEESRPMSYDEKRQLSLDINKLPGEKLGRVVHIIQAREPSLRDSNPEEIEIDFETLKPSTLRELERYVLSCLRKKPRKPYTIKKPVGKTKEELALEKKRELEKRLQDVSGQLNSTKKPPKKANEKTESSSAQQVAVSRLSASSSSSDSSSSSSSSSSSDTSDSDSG

Compound	IC50 [1]	EC50 [2]	PAMPA Pm [3]	half-life at 1 µM [4]	Brain Tissue Binding [5, 7]	Plasma Binding [6]	Brain Tissue Binding [5]
Cc1sc2c(c1C)C(c1ccc(Cl)cc1)=N[C@@H](CC(=O)OC1COC1)c1nnc(C)n1-2 [DDL-356]	158 nM	178 nM	0.96	1.25 h	57 % bound	79 % bound	–
Cc1sc2c(c1C)C(c1ccc(Cl)cc1)=N[C@@H](CC(=O)OC1CC1)c1nnc(C)n1-2 [DDL-357]	161 nM	223 nM	1.66	1.02 h	75 % bound	88 % bound	75.3%
